Entries after “also recorded” stand apart in the source; their conditions may differ.
Key:
[1] = UPE count method (in vitro), linoleic acid mixture irradiated with blue light or UVA; conditions: for blue light oxidation-inhibiting effect (rate of change in blue light-induced UPE): 5 wt % aqueous solution of candidate in linoleic acid mixture, blue light 430 nm LED 6 mW/cm^2, 10 minutes, UPE integrated for 300 seconds; for inhibiting effect against blue light oxidation compared with inhibiting effect against oxidation by UVA (UPE): linoleic acid mixture, blue light 430 nm vs UVA 300 to 400 nm
Protocol: The candidate substances listed in Table 1 were added to ultrapure water to prepare 5 wt % aqueous solutions as samples.
The samples were prepared by mixing the substances in the following compositions with linoleic acid and oleic acid as biological components. As a control, ultrapure water was used instead of a 5% aqueous solution of the candidate substance.
A 2 mL portion of the sample prepared by the method described above was added to a plastic container and irradiated with 6 mW/cm^2 blue light (430 nm LED, CL-H1-430-9-1, Asahi Spectra Co., Ltd.) using an LED light source (CL-1501, Asahi Spectra Co., Ltd.), for a period of 10 minutes. The experiment was conducted while shielded, to exclude the effects of light of other wavelengths. For the control, ultrapure water was added instead of the starting material aqueous solution.
The irradiated sample was transferred to a quartz glass container and set in the black box of a photon counter (Tohoku Electronic Industrial Co.). Photon counting of UPE was initiated one minute after irradiation was complete. UPE was detected by a built-in photomultiplier tube (PMT, R2257P, Hamamatsu Photonics, K.K.) in the photon counter, with measurement being conducted while shielded.
The integrated value of UPE intensity for 300 seconds after the start of UPE measurement was determined and the rate of change in UPE was calculated by formula 2, to evaluate the oxidative stress inhibiting effect.
Rate of change in UPE=(UPE intensity of material added sample−UPE intensity of control sample (non-irradiated))−(UPE intensity of control sample−UPE intensity of control sample (non-irradiated)) Formula 2: […]

[2] = DPPH radical scavenging rate (DPPH Antioxidant Assay Kit); conditions: 5 wt %, 1 wt % and 0.2 wt % aqueous solutions; 30 minutes at 25° C.; absorbance at 517 nm
Text: Methods for measuring oxidation inhibiting effects by radical scavenging rate evaluation are known. The present inventors therefore examined oxidation inhibiting effects of the aforementioned candidate substances at different concentrations, by the following procedure using a DPPH Antioxidant Assay Kit (Dojindo Laboratories).
The candidate substances of Example 1 were used as 5 wt %, 1 wt % and 0.2 wt % aqueous solutions. Blank 1, Blank 2, Sample and Sample Blank Solution listed in Table 3 were prepared by the manufacturer's protocol described in general below, and the radical scavenging rates were calculated.
• 1. Each candidate substance was loaded into a 96 well plate as a 5 wt %, 1 wt % or 0.2 wt % aqueous solution. • 2. Water was added to Blank 1 and Blank 2 at 20 μl each. • 3. Assay Buffer was added at 80 μl to each well. • 4. After adding 100 μl of ethanol to Blank 2 and the Sample blank, it was thoroughly mixed by pipetting. • After adding 100 μl of DPPH working solution to the sample and Blank1, it was thoroughly mixed by pipetting. • 6. The plate was incubated for 30 minutes at 25° C. in a dark environment. • 7. The absorbance at 517 nm was measured with a plate reader (Spectramax 250, Molecular Devices). • 8. The radical scavenging rate (%) of each sample was calculated by the following formula 3.
Radical scavenging rate (%)=[…]×100 Formula 3:
(ACS=Blank1−Blank2, AS=Sample−Sample Blank)

[3] = UPE count method (in vitro), linoleic acid mixture irradiated with blue light or UVA; conditions: 5 wt % aqueous solution in linoleic acid mixture; UVA lamp 300 to 400 nm 3.5 mW/cm^2
human skin tissue = assay: Measurement of oxidative stress by UPE imaging on human skin tissue; conditions: 20 μL of 5% aqueous solution on stratum corneum side, 40 minutes; blue light 430 nm 6 mW/cm^2, 10 minutes
Protocol: A 20 μL aqueous solution of 5% hypotaurine was applied to the center of the stratum corneum side of human skin tissue (KAC Co., dorsal region), and allowed to stand for 40 minutes while shielded.
After irradiation with blue light (430 nm LED, 6 mW/cm^2) for 10 minutes, the hypotaurine aqueous solution was wiped off and immediately observed by UPE imaging using a high-sensitivity cooled CCD camera (850S CCD42-40, Spectral Instruments Inc.), while shielded (photographing time: 10 minutes).

SMILES | blue light oxidation-inhibiting effect (rate of change in blue light-induced UPE) [1] | DPPH radical scavenging power (radical scavenging rate) [2] | blue light oxidation-inhibiting effect (rate of change in blue light-induced UPE) ([1]; listed as ascorbic acid glucoside) | blue light oxidation-inhibiting effect (rate of change in blue light-induced UPE) ([1]; listed as cysteine) | UV oxidation inhibiting effect (rate of change in UV light-induced UPE) [3] | inhibiting effect against blue light oxidation compared with inhibiting effect against oxidation by UVA (UPE) [1] | UPE intensity after blue light irradiation (UPE imaging) (human skin tissue)
O=C1O[C@H]([C@@H](O)CO)C(O)=C1O [L(+)-ascorbic acid, L(+)-Ascorbic acid] | high blue light oxidation-inhibiting effect; also recorded: excellent blue light oxidation-inhibiting effects | high radical scavenging power | – | – | – | – | –
O=C1O[C@H]([C@@H](O)CO)C(O)=C1O[C@H]1O[C@H](CO)[C@@H](O)[C@H](O)[C@H]1O [L-ascorbic acid glucoside, L-Ascorbic acid glucoside, reference compound] | not found to have significant blue light oxidation-inhibiting effects | high radical scavenging power | little of the blue light oxidation-inhibiting effect | – | – | – | –
N[C@@H](CS)C(=O)O [L-cysteine, L-Cysteine, reference compound] | not found to have significant blue light oxidation-inhibiting effects | high radical scavenging power | – | little of the inhibiting effect against blue light oxidation | – | – | –
CC(C)(CO)[C@@H](O)C(=O)NCCC(=O)NCCSS(=O)(=O)[O-].CC(C)(CO)[C@@H](O)C(=O)NCCC(=O)NCCSS(=O)(=O)[O-].[Ca+2] [calcium pantetheine-S-sulfonate] | high blue light oxidation-inhibiting effect; also recorded: excellent blue light oxidation-inhibiting effects | High radical scavenging power was not observed | – | – | UV oxidation inhibiting effect was found | – | –
NCCS(=O)O [hypotaurine, Hypotaurine] | high inhibiting effect against blue light oxidation; also recorded: excellent blue light oxidation-inhibiting effects | high radical scavenging power | – | – | – | higher than the inhibiting effect against oxidation by UVA | lowered
NCCS(=O)(O)=S [thiotaurine, Thiotaurine] | high inhibiting effect against blue light oxidation; also recorded: excellent blue light oxidation-inhibiting effects | High radical scavenging power was not observed | – | – | – | higher than the inhibiting effect against oxidation by UVA | –

From US20230414564A1, “BLUE LIGHT OXIDATION INHIBITOR AND SCREENING METHOD FOR SAME” (SHISEIDO COMPANY, LTD., priority 2020, published 2023)
